Activity calls are given as the source filed them. The rule behind the calls is not given here.
How the values were obtained:
[1] = system: Hepatitis B virus; test: (§1) Antiviral activity against HBV infected in human HepG2.2.15 cells assessed as inhibition of viral DNA replication at 4 uM pre-transfected cells with viral genome followed by compound treatment for 72 hrs by RT-PCR analysis relative to control; type: functional
[2] = Cmax in Sprague-Dawley rat at 10 mg/kg, IG measured for 12 hrs by UPLC-MS/MS analysis; type: ADME, organism-based; conditions: in vivo, po
[3] = system: HEK-293T; test: Effect on NF-kappaB/Renilla luciferase expression in HEK293T cells at 0.4 to 10 uM incubated for 48 hrs by Dual-luciferase reporter gene assay; type: functional, cell-based; conditions: Homo sapiens, dose 0.4-10 µM
[4] = system: PBMC; test: Induction of TNF-alpha production in human PBMC cells incubated for 24 hrs by ELISA; type: functional, cell-based; conditions: dose 0.4-10 µM
[5] = Half life in Sprague-Dawley rat at 10 mg/kg, IG measured for 12 hrs by UPLC-MS/MS analysis; type: ADME, organism-based; conditions: in vivo, po
[6] = system: Hepatitis B virus; test: as §1, with “6 days with replacement of medium containing compound on every 2 days” for “72 hrs”; type: functional; conditions: HepG2.2.15, 144 h, time 6 day
[7] = Cytotoxicity against human HepG2.A64 cells incubated for 72 hrs by CCK8 assay; type: toxicity, cell-based
[8] = system: Hepatitis B virus; test: Antiviral activity against HBV infected in human HepG2.2.15 cells assessed as inhibition of viral DNA replication pre-transfected cells with viral genome followed by compound treatment for 6 days with replacement of medium containing compound on every 2 days by RT-PCR analysis; type: functional, organism-based
[9] = biological target: T1, Toll-like receptor 7 (Homo sapiens, UniProt Q9NYK1); test: Binding affinity to recombinant human TLR7 assessed as dissociation constant by SPR analysis
T1 sequence (Q9NYK1 whole entry): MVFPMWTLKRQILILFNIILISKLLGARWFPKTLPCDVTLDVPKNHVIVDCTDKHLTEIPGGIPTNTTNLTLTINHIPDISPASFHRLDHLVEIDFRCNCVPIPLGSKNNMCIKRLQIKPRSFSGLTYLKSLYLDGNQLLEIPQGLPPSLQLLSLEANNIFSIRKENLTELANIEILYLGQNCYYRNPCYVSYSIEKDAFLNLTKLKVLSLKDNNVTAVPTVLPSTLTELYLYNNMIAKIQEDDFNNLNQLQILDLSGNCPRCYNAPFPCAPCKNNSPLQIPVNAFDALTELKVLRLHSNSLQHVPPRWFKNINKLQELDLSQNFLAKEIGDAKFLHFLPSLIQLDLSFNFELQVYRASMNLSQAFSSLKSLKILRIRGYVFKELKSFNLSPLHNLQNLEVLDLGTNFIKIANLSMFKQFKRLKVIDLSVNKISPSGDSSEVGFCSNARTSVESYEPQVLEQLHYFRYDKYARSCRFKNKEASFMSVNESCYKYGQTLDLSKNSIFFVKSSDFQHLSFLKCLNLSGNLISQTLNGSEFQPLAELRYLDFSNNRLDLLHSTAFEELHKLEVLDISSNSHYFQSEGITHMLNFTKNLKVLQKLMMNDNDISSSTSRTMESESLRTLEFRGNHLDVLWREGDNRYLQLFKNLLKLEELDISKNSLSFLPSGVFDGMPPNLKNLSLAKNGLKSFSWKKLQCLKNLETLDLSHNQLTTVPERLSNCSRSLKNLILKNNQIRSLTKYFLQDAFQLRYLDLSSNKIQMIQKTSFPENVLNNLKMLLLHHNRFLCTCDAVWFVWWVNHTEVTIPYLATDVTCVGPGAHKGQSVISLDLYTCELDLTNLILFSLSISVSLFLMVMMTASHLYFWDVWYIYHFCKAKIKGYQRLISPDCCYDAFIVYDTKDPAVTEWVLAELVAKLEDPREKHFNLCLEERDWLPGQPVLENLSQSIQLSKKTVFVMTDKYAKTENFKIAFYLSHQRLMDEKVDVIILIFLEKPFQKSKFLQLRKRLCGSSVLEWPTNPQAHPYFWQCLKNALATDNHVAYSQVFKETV

[10] = Cytotoxicity against human HepG2.2.15 cells incubated for 72 hrs by CCK8 assay; type: toxicity, cell-based, HepG2 2.2.15
[11] = system: Hepatitis B virus; test: Antiviral activity against HBV infected in LAM/ETV-resistant human HepG2.A64 cells assessed as inhibition of viral DNA replication at 4 uM pre-transfected cells with viral genome followed by compound treatment for 72 hrs by RT-PCR analysis relative to control; type: functional
[12] = AUClast in Sprague-Dawley rat at 10 mg/kg, IG measured for 12 hrs by UPLC-MS/MS analysis; type: ADME, organism-based; conditions: in vivo, po
[13] = biological target: T2, Toll-like receptor 7 (Homo sapiens) (UniProt Q9NYK1); test: Agonist activity at human TLR7 expressed in HEK293T cells co-transfected with NF-kappaB/Renilla luciferase incubated for 48 hrs by Dual-luciferase reporter gene assay; type: cell-based; conditions: filed as agonist, dose 0.4-10 µM
T2 sequence (whole entry): T1 sequence (Q9NYK1 whole entry)

[14] = Selectivity index, ratio of CC50 for human HepG2.2.15 cells to IC50 for HBV infected in human HepG2.2.15 cells assessed as inhibition of viral DNA replication; type: toxicity, cell-based
[15] = system: Hepatitis B virus; test: Antiviral activity against HBV infected in human HepG2.A64 cells assessed as inhibition of viral DNA replication pre-transfected cells with viral genome followed by compound treatment for 3 days by RT-PCR analysis; type: functional, organism-based; conditions: HepG2.A64, 72 h
[16] = Selectivity index, ratio of CC50 for human HepG2.2.15 cells to IC50 for HBsAg secretion in human HepG2.2.15 cells; type: toxicity, cell-based; conditions: HepG2.2.15 cells, read-out: Ratio CC50/IC50
[17] = Selectivity index, ratio of CC50 for human HepG2.A64 cells to IC50 for HBV infected in human HepG2.A64 cells assessed as inhibition of viral DNA replication; type: toxicity, cell-based; conditions: read-out: Ratio CC50/IC50
[18] = system: PBMC; test: Induction of IFN-alpha production in human PBMC cells incubated for 24 hrs by ELISA; type: functional, cell-based; conditions: dose 0.4-10 µM
[19] = Inhibition of HBsAg secretion in human HepG2.2.15 cells treated for 6 days with replacement of medium containing compound on every 2 days by […]; type: functional, cell-based; conditions: HepG2 2.2.15
[20] = Tmax in Sprague-Dawley rat at 10 mg/kg, IG measured for 12 hrs by UPLC-MS/MS analysis; type: ADME, organism-based; conditions: in vivo, po
[21] = system: PBMC; test: Induction of IL-2 production in human PBMC cells incubated for 24 hrs by ELISA; type: functional, cell-based; conditions: dose 0.4-10 µM

O=C(Cc1csc(COc2ccccc2F)n1)N1CCc2ccccc21
inhibition at 4 µM [1]: 71.7%
Cmax [2]: 66 ng/mL
Activity [3]: Active
Activity [4]: Dose-Dependent Effect
half-life [5]: 120 min
inhibition at 4 µM [6]: 69.2%
CC50 at 72 h [7]: > 20 µM
IC50 [8]: 130 nM
Kd [9]: 7.06 µM
CC50 at 72 h [10]: > 50 µM
inhibition at 4 µM [11]: 74.2%
AUC(0-t) at 12 h [12]: 252 ng·h/mL
Activity [13]: Dose-Dependent Effect
Ratio CC50/IC50 [14]: > 384.62
selectivity ratio ([14]; HepG2.2.15 cells, read-out: Ratio CC50/IC50): > 384
IC50 [15]: 360 nM
selectivity ratio [16]: > 1.93
selectivity ratio [17]: > 55.6
Activity [18]: Dose-Dependent Effect
IC50 [19]: 25.9 µM
Tmax [20]: 2 h
Activity [21]: Dose-Dependent Effect

— ChEMBL document CHEMBL5579825, “Exploration of 1-(indolin-1-yl)-2-(thiazol-2-yl)ethan-1-one derivatives as novel anti-HBV agent with potential TLR7-agonistic effect” (Eur J Med Chem, 2024)
